From patent US11402382B2, “Diagnostic and therapeutic methods for cancer” (Genentech, Inc., priority 2017, dated 2022)
Like-named read-outs stand apart in the source and are kept apart here.

Tests used:
[1] = test system: previously untreated metastatic renal cell carcinoma (mRCC); assay: IMmotion150 phase 2 randomized trial: efficacy (PFS, ORR per RECIST v1.1, IRF); format: in vivo, human; conditions: IRF-assessed
Experimental: A phase II clinical study, IMmotion150 (NCT01984242), was performed to evaluate the safety and tolerability of atezolizumab, alone or in combination with bevacizumab, as compared to sunitinib in patients with previously untreated metastatic renal cell carcinoma (mRCC). Integrated tumor genomic analyses were also performed to correlate molecular biomarkers with observed clinical outcomes in the phase II study.
The primary objective of this phase 2 trial was to evaluate the efficacy of atezolizumab+bevacizumab and atezolizumab monotherapy compared with sunitinib.
The original primary endpoint was PFS per Response Evaluation Criteria In Solid Tumors version 1.1 (RECIST v1.1) via IRF in the ITT population. Although patients were stratified by ≥5% PD-L1 expression on IC, the definition of PD-L1 positivity was revised from ≥5% to ≥1% PD-L1 expression on IC, based on phase 1a data, and the study protocol was amended to create PD-L1 expression on IC as a coprimary endpoint of IRF-assessed PFS. […] Secondary endpoints included investigator (INV)-assessed PFS, ORR, and duration of response (DOR) per RECIST v1.1, overall survival (OS), patient-reported outcomes, and safety. Key exploratory objectives included evaluation of the relationship between the expression of predictive and prognostic exploratory biomarkers and their association with disease status and efficacy as defined by ORR and PFS.
During the study, each cycle was six weeks (42 days) in duration, and data on tumor measurement and survival status were collected for evaluation of PFS, milestone PFS (at 24, 52, and 76 weeks), OS, and ORR per RECIST v1.1. Tumor assessments occurred at baseline and every 12 weeks ±five business days after Cycle 1, Day 1, or more frequently if clinically indicated. Patients who discontinued first-line treatment or crossover treatment were followed up for survival approximately every three months until death, withdrawal of consent, loss to follow-up, or study termination. Patients who discontinued study treatment for reasons other than disease progression (e.g., toxicity) continued to undergo scheduled tumor assessments (every 12 weeks) until death, disease progression per RECIST v1.1, withdrawal of consent, or study termination, whichever occurred first.
Kaplan-Meier methodology was used to estimate the median PFS for each treatment arm, and Kaplan-Meier curves were produced. The primary analysis was triggered when 140 INV-PFS events occurred among patients treated with atezolizumab+bevacizumab and with sunitinib or among patients treated with atezolizumab alone and with sunitinib, whichever occurred later. The HR estimates and their 95% CIs were determined by using the stratified Cox proportional hazards model. The stratification factors included prior nephrectomy, tumor PD-L1 status, and MSKCC score and were determined based on data from the electronic case report form; if such data were missing, data collected by the IxRS at the time of randomization were used. Tumor specimens were prospectively tested for PD-L1 expression on ICs by a central laboratory using the SP142 IHC assay (VENTANA, Tucson, Ariz.). IC staining was defined as follows: any discernible PD-L1 staining of any intensity in IC covering <1% or absent (ICO), between ≥1% and <5% (IC1), between ≥5% and <10% (IC2), or ≥10% (IC3) of tumor area occupied by tumor cells, associated intratumoral, and contiguous peri-tumoral desmoplastic stroma.

[2] = IMmotion150 phase 2 randomized trial: safety (adverse events); conditions: for Arthralgia / Constipation / Cough / Decreased appetite / Diarrhea / Dysgeusia / Epistaxis / Fatigue / Headache / Hypertension / Infections and infestations / Mucosal inflammation / Nausea / Palmar-plantar erythrodysesthesia syndrome / Proteinuria / Pruritus / Pyrexia / Rash / Stomatitis / Vomiting: AEs occurring in ≥20% of patients in any arm; for Treatment-related AE: all grade; for AEs leading to death: events: footnote a of Table 23;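 for all read-outs here: Open-label multicenter randomized phase 2 trial with three treatment arms, safety set restricted to patients who actually received study drug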
Experimental: (§1) Study treatment consisted of atezolizumab 1200 mg fixed intravenous dose +bevacizumab 15 mg/kg every three weeks, atezolizumab 1200 mg fixed intravenous dose every three weeks, or sunitinib 50 mg/day orally for four weeks followed by two weeks of rest. On disease progression (as assessed by the investigator per RECIST v1.1), patients randomized to atezolizumab monotherapy or sunitinib had the option to cross over and receive the atezolizumab+bevacizumab combination in some regions (option was not available in Europe). In the absence of unacceptable toxicity, treatment with the combination continued until evidence of progressive disease. Where permitted, patients in the atezolizumab-containing arms could continue to be treated beyond disease progression per RECIST v1.1 until lack of clinical benefit; those in non-European nations could cross over to atezolizumab+bevacizumab therapy at any time after disease progression per RECIST v1.1, provided all eligibility criteria were met.

[3] = in vivo
Experimental: as §1

[4] = PD-L1+ population (≥1% PD-L1 expression on IC)
[5] = AE of special interest, All Grade
[6] = AE of special interest, Grade 3/4

Compound: CCN(CC)CCNC(=O)c1c(C)[nH]c(/C=C2\C(=O)Nc3ccc(F)cc32)c1C [Sunitinib, N-[2-(Diethylamino)ethyl]-5-[(Z)-(5-fluoro-2-oxo-1,2-dihydro-3H-indol-3-ylidene)methyl]-2,4-dimethyl-1H-pyrrole-3-carboxamide]
- complete response (CR) ([1]; ITT population): 5%
- median progression-free survival (PFS) ([1]; ITT population): 8.4 months
- objective response rate (ORR) ([1]; ITT population): 29%
- partial response (PR) ([1]; ITT population): 24%
- complete response (CR) ([1]; PD-L1+ patients): 7%
- objective response rate (ORR) ([1]; PD-L1+ patients): 27%
- partial response (PR) ([1]; PD-L1+ patients): 20%
- median progression-free survival (PFS) [1, 4]: 7.8 months
- AEs leading to death ([2]; % of patients): (2%)
- AEs leading to dose modification or interruption ([2]; % of patients): (70%)
- AEs leading to withdrawal from treatment ([2]; % of patients): (10%)
- Grade 3/4 AEs, any cause ([2]; % of patients): (69%)
- Treatment-related AEs leading to death ([2]; % of patients): (2%)
- Treatment-related AEs leading to withdrawal from treatment ([2]; % of patients): (9%)
- Treatment-related grade 3/4 AEs ([2]; % of patients): (57%)
- Treatment-related AEs leading to withdrawal from treatment ([2]; % of patients, listed as sunitinib): 9%
- Decreased blood cortisol/adrenal insufficiency [2, 5]: 0 n
- Pneumonitis [2, 5]: 0 n
- Colitis [2, 6]: 0 n
- Decreased blood cortisol/adrenal insufficiency [2, 6]: 0 n
- Pneumonitis [2, 6]: 0 n
- TSH decreased/hypothyroidism [2, 6]: 0 n
- TSH increased/hyperthyroidism [2, 6]: 0 n
- Arthralgia [2]: (18.0%)
- Constipation [2]: (30.0%)
- Cough [2]: (25.0%)
- Decreased appetite [2]: (29.0%)
- Diarrhea [2]: (59.0%)
- Dysgeusia [2]: (30.0%)
- Epistaxis [2]: (12.0%)
- Fatigue [2]: (70.0%)
- Headache [2]: (23.0%)
- Hypertension [2]: (35.0%)
- Infections and infestations [2]: (32.0%)
- Mucosal inflammation [2]: (33.0%)
- Nausea [2]: (45.0%)
- Palmar-plantar erythrodysesthesia syndrome [2]: (40.0%)
- Proteinuria [2]: (9.0%)
- Pruritus [2]: (10.0%)
- Pyrexia [2]: (12.0%)
- Rash [2]: (13.0%)
- Stomatitis [2]: (25.0%)
- Vomiting [2]: (20.0%)
- Arthralgia ([2]; number of patients): 18
- Constipation ([2]; number of patients): 30
- Cough ([2]; number of patients): 25
- Decreased appetite ([2]; number of patients): 29
- Diarrhea ([2]; number of patients): 59
- Dysgeusia ([2]; number of patients): 30
- Epistaxis ([2]; number of patients): 12
- Fatigue ([2]; number of patients): 70
- Headache ([2]; number of patients): 23
- Hypertension ([2]; number of patients): 35
- Infections and infestations ([2]; number of patients): 32
- Mucosal inflammation ([2]; number of patients): 33
- Nausea ([2]; number of patients): 45
- Palmar-plantar erythrodysesthesia syndrome ([2]; number of patients): 40
- Proteinuria ([2]; number of patients): 9
- Pruritus ([2]; number of patients): 10
- Pyrexia ([2]; number of patients): 12
- Rash ([2]; number of patients): 13
- Stomatitis ([2]; number of patients): 25
- Vomiting ([2]; number of patients): 20
- Treatment-related AE ([2]; % of patients): (96%)
- Treatment-related AE ([2]; number of patients): 96 n
- AEs leading to death: events [2]: sudden death (related), intestinal hemorrhage (related)
- related AE leading to treatment discontinuation: increased blood creatinine ([2]; in vivo): 2%
- related AE leading to treatment discontinuation: palmar-plantar erythrodysesthesia syndrome ([2]; in vivo): 2%
- AEs leading to death ([2]; number of patients): 2 n
- AEs leading to dose modification or interruption ([2]; number of patients): 70 n
- AEs leading to withdrawal from treatment ([2]; number of patients): 10 n
- All-grade AEs, any cause ([2]; number of patients): 99 n
- Grade 3/4 AEs, any cause ([2]; number of patients): 69 n
- Treatment-related AEs leading to death ([2]; number of patients): 2 n
- Treatment-related AEs leading to withdrawal from treatment ([2]; number of patients): 9 n
- Treatment-related grade 3/4 AEs ([2]; number of patients): 57 n

Compound: Atezo: anti-PD-L1 antibody atezolizumab (CAS Registry Number: 1422185-06-5), Genentech, also known as MPDL3280A
- Colitis [3]: 0 n
- Decreased blood cortisol/adrenal insufficiency [3]: 0 n
- Pneumonitis [3]: 0 n
- TSH decreased/hypothyroidism [3]: 0 n
- TSH increased/hyperthyroidism [3]: 0 n
- treatment-related AE leading to discontinuation of treatment: demyelination [3]: 1%
- treatment-related AE leading to discontinuation of treatment: nephritis [3]: 1%
- treatment-related AE leading to discontinuation of treatment: pancreatitis [3]: 1%
- Stratified PFS HR (95% CI) vs sunitinib ([1]; ITT population): 1.19
- complete response (CR) ([1]; ITT population): 11%
- median progression-free survival (PFS) ([1]; ITT population): 6.1 months
- objective response rate (ORR) ([1]; ITT population): 25%
- partial response (PR) ([1]; ITT population): 14%
- Stratified PFS HR (95% CI) vs sunitinib ([1]; PD-L1+ (PD-L1 IHC IC1/2/3, ≥1%)): 1.03
- complete response (CR) ([1]; PD-L1+ patients): 15%
- objective response rate (ORR) ([1]; PD-L1+ patients): 28%
- partial response (PR) ([1]; PD-L1+ patients): 13%
- median progression-free survival (PFS) [1, 4]: 5.5 months
- Stratified PFS HR (95% CI) vs sunitinib ([1]; PD-L1 IHC IC2/3 (≥5%)): 0.64
- AEs leading to death ([2]; % of patients): (2%)
- AEs leading to death: events [2]: hematophagic hitiocytosis, lower respiratory tract infection
- AEs leading to death ([2]; number of patients): 2 n
- Treatment-related AEs leading to death ([2]; number of patients): 0 n
